# Reference: publication PMC8242589, “Cardiac Safety of Kinase Inhibitors – Improving Understanding and Prediction of Liabilities in Drug Discovery Using Human Stem Cell-Derived Models” (Frontiers in Cardiovascular Medicine, 2021)
# Where two headings read alike, the source gives them in different places.
# Tests used:
# [1] = system: hSC-CMs (Cor.4U Cardiomyocytes); assay: Apoptosis assay (CellEvent Caspase-3/7 Green, IncuCyte ZOOM kinetics over 24 h); assay type: cell-based, human; parameters: key to Caspase / Caspase MEAN: % of time-matched vehicle control (green object area); conditions: for activity at 0.03 µM / activity at 0.1 µM / activity at 0.3 µM / activity at 1 µM / activity at 3 µM / activity at 30 µM: Homo sapiens, Cardiomyocyte, normalized to time-matched vehicle control; for Apoptosis (caspase-3/7 activation), result in words / Time to reach the maximum number of apoptotic cells: hSC-CMs, monitored over 24 h
# Method in brief: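 Cor.4U cardiomyocytes were cultured 4 days at 5% CO2 and 37 °C, given a 2 h baseline, then treated with compound for 24 h. Caspase-3/7 green nuclear signal was imaged every 2 h, and total green object area per well (μm^2/well) was normalized to the time-matched vehicle control. At least three replicates were run per concentration.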
# PI3K p110γ = conditions: ref [23]–[25] (NVP-BEZ235), [28] (GDC-0941), [33] (CAL-101), [35] (CZC24832); read-out: Target IC50 p110γ; cited from earlier work
# PI3K p110δ = conditions: ref [23]–[25] (NVP-BEZ235), [27] (LY 294002), [28] (GDC-0941), [33] (CAL-101); read-out: Target IC50 p110δ; cited from earlier work
# PI3K p110α = conditions: ref [23]–[25] (NVP-BEZ235), [27] (LY 294002), [28] (GDC-0941), [31] (HS-173), [33] (CAL-101); read-out: Target IC50 p110α; cited from earlier work
# PI3K p110β = conditions: ref [23]–[25] (NVP-BEZ235), [27] (LY 294002), [28] (GDC-0941), [32] (TGX-221), [33] (CAL-101), [35] (CZC24832); read-out: Target IC50 p110β; cited from earlier work
# [2] = system: hSC-CMs (Cor.4U Cardiomyocytes); assay: CardioExcyte 96 impedance and EFP recording (beating rate, base impedance); assay type: cell-based, human; conditions: for activity at 0.03 µM / activity at 0.3 µM / activity at 3 µM / activity at 30 µM: Homo sapiens, Cardiomyocyte, vs baseline before drug (taken as 100%)
# Method in brief: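 hSC-CM monolayers (Cor.4U), cultured 4 days at 37 °C, 5% CO2, recorded spontaneously beating; impedance sampled at 1 kHz, EFP at 10 kHz. Beating rate taken as reciprocal of inter-spike interval in EFP. Each test concentration expressed as fractional change versus pre-drug baseline (100%).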
# [3] = system: hSC-CMs (Cor.4U Cardiomyocytes); assay: ATP assay (CellTiter-Glo Luminescent Cell Viability Assay); assay type: cell-based, human; conditions: for viability at 0.03 µM / viability at 0.3 µM / viability at 3 µM / viability at 30 µM: Homo sapiens, Cardiomyocyte, normalized to time-matched DMSO control
# Method in brief: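 Human stem-cell-derived Cor.4U cardiomyocytes (25,000–30,000/well), cultured 4 days at 37 °C, switched to serum-free BMCC medium 12 h before dosing. Cellular ATP quantified by CellTiter-Glo luminescence and normalized to time-matched DMSO controls; at least three replicates per concentration.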
# GSK-3β = conditions: ref [46] (CHIR99021), [48] (TWS119); read-out: Target IC50 GSK-3β; cited from earlier work
compound,measurement,setting,value
"CS(=O)(=O)N1CCN(Cc2cc3nc(-c4cccc5[nH]ncc45)nc(N4CCOCC4)c3s2)CC1 [GDC-0941, 2-(1 H -Indazol-4-yl)-6-(4-methanesulfonyl-piperazin-1-ylmethyl)-4-morpholin-4-yl-thieno[3,2-d]pyrimidine]",activity at 0.03 µM,[1]; 2h,157%
same,activity at 0.03 µM,[1]; 24h,80%
same,activity at 0.1 µM,"[1]; 0.1 µM, 2h",138%
same,activity at 0.1 µM,"[1]; 0.1 µM, 24h",77%
same,activity at 0.3 µM,[1]; 2h,106%
same,activity at 0.3 µM,[1]; 24h,113%
same,activity at 1 µM,"[1]; 1 µM, 2h",104%
same,activity at 1 µM,"[1]; 1 µM, 24h",219%
same,"Apoptosis (caspase-3/7 activation), result in words",[1],induced apoptosis in hSC-CMs with a fast onset
same,Time to reach the maximum number of apoptotic cells,[1],≤ 12 h
O=c1cc(N2CCOCC2)oc2c(-c3ccccc3)cccc12 [LY 294002],activity at 0.03 µM,[1]; 2h,194%
same,activity at 0.03 µM,[1]; 24h,95%
same,activity at 0.3 µM,[1]; 2h,130%
same,activity at 0.3 µM,[1]; 24h,93%
same,activity at 3 µM,[1]; 2h,110%
same,activity at 3 µM,[1]; 24h,217%
same,activity at 30 µM,[1]; 2h,62%
same,activity at 30 µM,[1]; 24h,428%
same,"Apoptosis (caspase-3/7 activation), result in words",[1],induced apoptosis in hSC-CMs with a fast onset
same,Time to reach the maximum number of apoptotic cells,[1],≤ 12 h
same,activity at 0.03 µM,"[2]; 2h, read-out: BR",112%
same,activity at 0.03 µM,"[2]; 2h, read-out: Base Imp",72%
same,activity at 0.03 µM,"[2]; 24h, read-out: BR",111%
same,activity at 0.03 µM,"[2]; 24h, read-out: Base Imp",72%
same,activity at 0.3 µM,"[2]; 2h, read-out: BR",109%
same,activity at 0.3 µM,"[2]; 2h, read-out: Base Imp",71%
same,activity at 0.3 µM,"[2]; 24h, read-out: BR",94%
same,activity at 0.3 µM,"[2]; 24h, read-out: Base Imp",75%
same,activity at 3 µM,"[2]; 2h, read-out: BR",94%
same,activity at 3 µM,"[2]; 2h, read-out: Base Imp",70%
same,activity at 3 µM,"[2]; 24h, read-out: BR",63%
same,activity at 3 µM,"[2]; 24h, read-out: Base Imp",59%
same,activity at 30 µM,"[2]; 2h, read-out: BR",0%
same,activity at 30 µM,"[2]; 2h, read-out: Base Imp",50%
same,activity at 30 µM,"[2]; 24h, read-out: BR",0%
same,activity at 30 µM,"[2]; 24h, read-out: Base Imp",33%
same,"Effect on cardiomyocyte function in 3D surface plots (beating rate, base impedance, ATP), in words","[2]; hSC-CMs, 2 and 24 h",pronounced effects
same,Reduction of base impedance,"[2]; hSC-CMs, 2 and 24 h",more than 20%
same,Reduction of beating rate,"[2]; hSC-CMs, 2 and 24 h",more than 20%
same,viability at 0.03 µM,[3]; 2h,89%
same,viability at 0.03 µM,[3]; 24h,95%
same,viability at 0.3 µM,[3]; 2h,85%
same,viability at 0.3 µM,[3]; 24h,91%
same,viability at 3 µM,[3]; 2h,90%
same,viability at 3 µM,[3]; 24h,78%
same,viability at 30 µM,[3]; 2h,103%
same,viability at 30 µM,[3]; 24h,86%
same,Decrease of ATP level,"[3]; hSC-CMs, after 24 h of incubation",20–25%
Nc1cccc(-c2cc3c(Oc4cccc(O)c4)ncnc3[nH]2)c1 [TWS119],Caspase,"[1]; 2h, 0.01 µM",142
same,Caspase,"[1]; 2h, 0.1 µM",127
same,Caspase,"[1]; 2h, 1 µM",127
same,Caspase,"[1]; 2h, 10 µM",105
same,Caspase,"[1]; 24h, 0.01 µM",137
same,Caspase,"[1]; 24h, 0.1 µM",114
same,Caspase,"[1]; 24h, 1 µM",96
same,Caspase,"[1]; 24h, 10 µM",113
same,"Apoptosis (caspase-3/7 activation), result in words",[1],did not have any functionally-relevant effect
same,"Effect on cardiomyocyte function in 3D surface plots (beating rate, base impedance, ATP), in words",[2],minimal functional effect
same,"Effect on hSC-CMs function (base impedance and beating rate), in words",[2],did not produce functionally relevant changes
same,BR,"[2]; 2h, 0.01 µM",107
same,Base Imp,"[2]; 2h, 0.01 µM",90
same,BR,"[2]; 2h, 0.1 µM",102
same,Base Imp,"[2]; 2h, 0.1 µM",86
same,BR,"[2]; 2h, 1 µM",103
same,Base Imp,"[2]; 2h, 1 µM",91
same,BR,"[2]; 2h, 10 µM",103
same,Base Imp,"[2]; 2h, 10 µM",90
same,BR,"[2]; 24h, 0.01 µM",107
same,Base Imp,"[2]; 24h, 0.01 µM",86
same,BR,"[2]; 24h, 0.1 µM",105
same,Base Imp,"[2]; 24h, 0.1 µM",91
same,BR,"[2]; 24h, 1 µM",104
same,Base Imp,"[2]; 24h, 1 µM",88
same,BR,"[2]; 24h, 10 µM",99
same,Base Imp,"[2]; 24h, 10 µM",84
same,IC50,GSK-3β,30 nM
same,ATP,"[3]; 2h, 0.01 µM",94
same,ATP,"[3]; 2h, 0.1 µM",98
same,ATP,"[3]; 2h, 1 µM",98
same,ATP,"[3]; 2h, 10 µM",96
same,ATP,"[3]; 24h, 0.01 µM",102
same,ATP,"[3]; 24h, 0.1 µM",98
same,ATP,"[3]; 24h, 1 µM",98
same,ATP,"[3]; 24h, 10 µM",104
same,"Effect on ATP level, in words","[3]; hSC-CMs, up to the highest test concentrations",did not impact the ATP level
